In PubChem BioAssay AID652002 (Sanford-Burnham Center for Chemical Genomics, 2013):
Calls of active or inactive are those of the source. No rule for the calls is given here.

How the values were obtained:
[1] = compound enhancement of TRAIL-induced cell killing – NB7 cells plus caspase-8, luminescence, panel, dose response (AID 652002); settings: NB7 neuroblastoma +caspase-8, no TRAIL, compound-alone cytotoxicity counter-screen, luminescence viability, NB7+Caspase-8
NB7+Caspase-8 = experiment: as above; settings: NB7 neuroblastoma +caspase-8, TRAIL sensitization, luminescence viability, with TRAIL
[2] = molecular target: Tumor necrosis factor receptor superfamily member 10B (Homo sapiens) (UniProt O14763); experiment: as above; settings: NB7 neuroblastoma +caspase-8, TRAIL sensitization, luminescence viability; NB7+Caspase-8; with TRAIL, mean of runs
[3] = run 1, single replicate panel EC50
[4] = run 2, single replicate panel EC50

Sequence of Tumor necrosis factor receptor superfamily member 10B (Homo sapiens) (O14763 whole entry, looked up): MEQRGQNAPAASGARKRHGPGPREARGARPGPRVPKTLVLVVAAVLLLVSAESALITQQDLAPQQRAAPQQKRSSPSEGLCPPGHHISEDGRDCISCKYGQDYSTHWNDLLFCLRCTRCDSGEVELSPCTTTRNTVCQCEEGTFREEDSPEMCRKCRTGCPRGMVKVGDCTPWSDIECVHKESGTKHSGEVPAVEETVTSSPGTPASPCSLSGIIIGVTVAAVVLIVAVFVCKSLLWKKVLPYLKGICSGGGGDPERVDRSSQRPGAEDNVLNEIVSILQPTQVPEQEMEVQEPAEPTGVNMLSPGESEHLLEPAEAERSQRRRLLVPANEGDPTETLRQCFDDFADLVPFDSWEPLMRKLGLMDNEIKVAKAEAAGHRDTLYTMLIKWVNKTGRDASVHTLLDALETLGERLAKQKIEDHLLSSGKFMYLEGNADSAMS

## O=c1cc(-c2ccccc2)nc2cc(-c3ccc(F)cc3)[nH]n12
[1]; mean of runs
  EC50: > 12.5 µM (inactive)
[1]; [3]
  EC50: > 12.5 µM
[1]; [4]
  EC50: > 12.5 µM
NB7+Caspase-8; [3]
  EC50: > 12.5 µM
NB7+Caspase-8; [4]
  EC50: > 12.5 µM
[2]
  EC50: > 12.5 µM (inactive)

## CC1(C)N=C(N)N=C(N)N1c1ccc(CCCCc2ccccc2)cc1
[1]; mean of runs
  EC50: inactive
[1]; [3]
  EC50: > 12.5 µM
[1]; [4]
  EC50: < 0.39 µM
NB7+Caspase-8; [3]
  EC50: < 0.39 µM
NB7+Caspase-8; [4]
  EC50: < 0.391 µM
[2]
  EC50: < 0.39 µM (inactive)

## COc1ccc2sc(-c3ccc(S(C)(=O)=O)cc3)c(C#Cc3cncn3C)c2c1
[1]; mean of runs
  EC50: > 12.5 µM (inactive)
[1]; [3]
  EC50: > 12.5 µM
[1]; [4]
  EC50: > 12.5 µM
NB7+Caspase-8; [3]
  EC50: > 12.5 µM
NB7+Caspase-8; [4]
  EC50: > 12.5 µM
[2]
  EC50: > 12.5 µM (inactive)

## O=C1Cc2c(-c3ccccc3)cc(-c3cccc(Cl)c3)nc2-c2ccccc2N1
[1]; mean of runs
  EC50: > 12.5 µM (inactive)
[1]; [3]
  EC50: > 12.5 µM
[1]; [4]
  EC50: > 12.5 µM
NB7+Caspase-8; [3]
  EC50: > 12.5 µM
NB7+Caspase-8; [4]
  EC50: > 12.5 µM
[2]
  EC50: > 12.5 µM (inactive)

## CCN(CC)c1ccc(NC(=O)Nc2ccccc2)cc1
[1]; mean of runs
  EC50: inactive
[1]; [3]
  EC50: > 12.5 µM
[1]; [4]
  EC50: 10.9 µM
NB7+Caspase-8; [3]
  EC50: > 12.5 µM
NB7+Caspase-8; [4]
  EC50: 8.27 µM
[2]
  EC50: inactive

## CN(C)S(=O)(=O)c1ccc(C(=O)Nc2nnc(SCC(=O)NCC3CCCO3)s2)cc1 (stereo unspecified)
[1]; mean of runs
  EC50: > 12.5 µM (inactive)
[1]; [3]
  EC50: > 12.5 µM
[1]; [4]
  EC50: > 12.5 µM
NB7+Caspase-8; [3]
  EC50: > 12.5 µM
NB7+Caspase-8; [4]
  EC50: > 12.5 µM
[2]
  EC50: > 12.5 µM (inactive)

## CCOc1ccc(/C=C/C(=O)Nc2cccc(C(C)=O)c2)cc1
[1]; mean of runs
  EC50: > 12.5 µM (inactive)
[1]; [3]
  EC50: > 12.5 µM
[1]; [4]
  EC50: > 12.5 µM
NB7+Caspase-8; [3]
  EC50: > 12.5 µM
NB7+Caspase-8; [4]
  EC50: > 12.5 µM
[2]
  EC50: > 12.5 µM (inactive)

## O=C(ONC1=NCCCCC1)c1ccc(Cl)cc1
[1]; mean of runs
  EC50: inactive
[1]; [3]
  EC50: > 12.5 µM
[1]; [4]
  EC50: 7.44 µM
NB7+Caspase-8; [3]
  EC50: > 12.5 µM
NB7+Caspase-8; [4]
  EC50: > 12.5 µM
[2]
  EC50: > 12.5 µM (inactive)

## Clc1nc(Cl)c2ncn(-c3ccccc3)c2n1
[1]; mean of runs
  EC50: > 12.5 µM (inactive)
[1]; [3]
  EC50: > 12.5 µM
[1]; [4]
  EC50: > 12.5 µM
NB7+Caspase-8; [3]
  EC50: > 12.5 µM
NB7+Caspase-8; [4]
  EC50: > 12.5 µM
[2]
  EC50: > 12.5 µM (inactive)

## CCOC(=O)c1ccc(N/C=C/C(=O)c2ccco2)cc1
[1]; mean of runs
  EC50: > 12.5 µM (inactive)
[1]; [3]
  EC50: > 12.5 µM
[1]; [4]
  EC50: > 12.5 µM
NB7+Caspase-8; [3]
  EC50: > 12.5 µM
NB7+Caspase-8; [4]
  EC50: > 12.5 µM
[2]
  EC50: > 12.5 µM (inactive)

## CN(C)CCCN(C(=O)c1ccc(S(=O)(=O)N2CCCc3ccccc32)cc1)c1nc2ccc(F)cc2s1
[1]; mean of runs
  EC50: > 12.5 µM (inactive)
[1]; [3]
  EC50: > 12.5 µM
[1]; [4]
  EC50: > 12.5 µM
NB7+Caspase-8; [3]
  EC50: > 12.5 µM
NB7+Caspase-8; [4]
  EC50: > 12.5 µM
[2]
  EC50: > 12.5 µM (inactive)

## COCCNC(=O)c1cc(-c2ccc(-c3ccccc3)cc2)nc2ccccc12
[1]; mean of runs
  EC50: inactive
[1]; [3]
  EC50: > 12.5 µM
[1]; [4]
  EC50: 2.09 µM
NB7+Caspase-8; [3]
  EC50: > 12.5 µM
NB7+Caspase-8; [4]
  EC50: 6.28 µM
[2]
  EC50: inactive

## COc1ccc(/C=N/Nc2nc3ccccc3c(=O)n2-c2ccccc2)cc1OC
[1]; mean of runs
  EC50: inactive
[1]; [3]
  EC50: 7.35 µM
[1]; [4]
  EC50: 9.86 µM
NB7+Caspase-8; [3]
  EC50: > 12.5 µM
NB7+Caspase-8; [4]
  EC50: 9.41 µM
[2]
  EC50: inactive

## C/C(=N\NC(=O)c1csc(C)c1C)c1ccco1
[1]; mean of runs
  EC50: > 12.5 µM (inactive)
[1]; [3]
  EC50: > 12.5 µM
[1]; [4]
  EC50: > 12.5 µM
NB7+Caspase-8; [3]
  EC50: > 12.5 µM
NB7+Caspase-8; [4]
  EC50: > 12.5 µM
[2]
  EC50: > 12.5 µM (inactive)

## COc1cc(NC(=O)c2cncc(-c3ccc(C#N)cc3)c2)cc(C(=O)Nc2cccc(C(F)(F)F)c2)c1
[1]; mean of runs
  EC50: > 12.5 µM (inactive)
[1]; [3]
  EC50: > 12.5 µM
[1]; [4]
  EC50: > 12.5 µM
NB7+Caspase-8; [3]
  EC50: > 12.5 µM
NB7+Caspase-8; [4]
  EC50: > 12.5 µM
[2]
  EC50: > 12.5 µM (inactive)

## Cc1cc(N/N=C/c2ccccc2)nc(NCc2ccccc2)n1
[1]; mean of runs
  EC50: > 12.5 µM (inactive)
[1]; [3]
  EC50: > 12.5 µM
[1]; [4]
  EC50: > 12.5 µM
NB7+Caspase-8; [3]
  EC50: > 12.5 µM
NB7+Caspase-8; [4]
  EC50: 10.9 µM
[2]
  EC50: inactive

## Cc1nn(-c2ccccc2)c2nc(N)c(C#N)c(-c3ccc(F)cc3)c12
[1]; mean of runs
  EC50: inactive
[1]; [3]
  EC50: > 12.5 µM
[1]; [4]
  EC50: 11.5 µM
NB7+Caspase-8; [3]
  EC50: > 12.5 µM
NB7+Caspase-8; [4]
  EC50: > 12.5 µM
[2]
  EC50: > 12.5 µM (inactive)

## Cc1cccc2nc(=S)n(C(=O)c3ccco3)n12
[1]; mean of runs
  EC50: > 12.5 µM (inactive)
[1]; [3]
  EC50: > 12.5 µM
[1]; [4]
  EC50: > 12.5 µM
NB7+Caspase-8; [3]
  EC50: > 12.5 µM
NB7+Caspase-8; [4]
  EC50: > 12.5 µM
[2]
  EC50: > 12.5 µM (inactive)

## CCOC(=O)[C@]12Cc3cc4ccccc4cc3[C@H]1N(Cc1ccccc1)C(=O)c1cc(OC)ccc12
[1]; mean of runs
  EC50: > 12.5 µM (inactive)
[1]; [3]
  EC50: > 12.5 µM
[1]; [4]
  EC50: > 12.5 µM
NB7+Caspase-8; [3]
  EC50: > 12.5 µM
NB7+Caspase-8; [4]
  EC50: > 12.5 µM
[2]
  EC50: > 12.5 µM (inactive)

## Cc1ccc2oc(-c3cccc(N)c3)nc2c1
[1]; mean of runs
  EC50: inactive
[1]; [3]
  EC50: 4.71 µM
[1]; [4]
  EC50: 7.88 µM
NB7+Caspase-8; [3]
  EC50: > 12.5 µM
NB7+Caspase-8; [4]
  EC50: 5.69 µM
[2]
  EC50: inactive

## O=C(N/N=C/c1cccc(OC(=O)c2ccco2)c1)c1ccc(F)cc1
[1]; mean of runs
  EC50: inactive
[1]; [3]
  EC50: 4.46 µM
[1]; [4]
  EC50: 7.04 µM
NB7+Caspase-8; [3]
  EC50: 4.82 µM
NB7+Caspase-8; [4]
  EC50: 4.55 µM
[2]
  EC50: inactive

## O=C(Nc1ccc2ccccc2c1)c1ccc(Cl)cc1
[1]; mean of runs
  EC50: > 12.5 µM (inactive)
[1]; [3]
  EC50: > 12.5 µM
[1]; [4]
  EC50: > 12.5 µM
NB7+Caspase-8; [3]
  EC50: > 12.5 µM
NB7+Caspase-8; [4]
  EC50: > 12.5 µM
[2]
  EC50: > 12.5 µM (inactive)

## O=C1c2ccc3c4c(ccc(c24)C(=O)N1c1cccc(O)c1)C(=O)N(c1cccc(O)c1)C3=O
[1]; mean of runs
  EC50: > 12.5 µM (inactive)
[1]; [3]
  EC50: > 12.5 µM
[1]; [4]
  EC50: > 12.5 µM
NB7+Caspase-8; [3]
  EC50: 2.35 µM
NB7+Caspase-8; [4]
  EC50: 12.4 µM
[2]
  EC50: inactive

## Cc1cc(-c2ccccc2)nc(Nc2nc3c(C)cccc3c(=O)[nH]2)n1
[1]; mean of runs
  EC50: > 12.5 µM (inactive)
[1]; [3]
  EC50: > 12.5 µM
[1]; [4]
  EC50: > 12.5 µM
NB7+Caspase-8; [3]
  EC50: > 12.5 µM
NB7+Caspase-8; [4]
  EC50: > 12.5 µM
[2]
  EC50: > 12.5 µM (inactive)

## CCOC(=O)c1sc(NC(=O)c2cc(-c3ccccc3C)nc3ccccc23)c(C#N)c1C
[1]; mean of runs
  EC50: > 12.5 µM (inactive)
[1]; [3]
  EC50: > 12.5 µM
[1]; [4]
  EC50: > 12.5 µM
NB7+Caspase-8; [3]
  EC50: > 12.5 µM
NB7+Caspase-8; [4]
  EC50: > 12.5 µM
[2]
  EC50: > 12.5 µM (inactive)

## CCCCC1CCC(C(=O)N(CCC(C)C)c2c(N)n(CCCC)c(=O)[nH]c2=O)CC1 (stereo unspecified)
[1]; mean of runs
  EC50: > 12.5 µM (inactive)
[1]; [3]
  EC50: > 12.5 µM
[1]; [4]
  EC50: > 12.5 µM
NB7+Caspase-8; [3]
  EC50: > 12.5 µM
NB7+Caspase-8; [4]
  EC50: > 12.5 µM
[2]
  EC50: > 12.5 µM (inactive)

## COc1cccc(NC(=O)Nc2nccc(C)n2)c1
[1]; mean of runs
  EC50: > 12.5 µM (inactive)
[1]; [3]
  EC50: > 12.5 µM
[1]; [4]
  EC50: > 12.5 µM
NB7+Caspase-8; [3]
  EC50: > 12.5 µM
NB7+Caspase-8; [4]
  EC50: 4.33 µM
[2]
  EC50: inactive

## C(=C\c1ccco1)/c1nc2ccccc2[nH]1
[1]; mean of runs
  EC50: > 12.5 µM (inactive)
[1]; [3]
  EC50: > 12.5 µM
[1]; [4]
  EC50: > 12.5 µM
NB7+Caspase-8; [3]
  EC50: > 12.5 µM
NB7+Caspase-8; [4]
  EC50: > 12.5 µM
[2]
  EC50: > 12.5 µM (inactive)

## Cc1ccc(-n2nnc(-c3cccnc3Cl)n2)cc1
[1]; mean of runs
  EC50: > 12.5 µM (inactive)
[1]; [3]
  EC50: > 12.5 µM
[1]; [4]
  EC50: > 12.5 µM
NB7+Caspase-8; [3]
  EC50: > 12.5 µM
NB7+Caspase-8; [4]
  EC50: > 12.5 µM
[2]
  EC50: > 12.5 µM (inactive)

## c1ccc(Nc2nnc(-c3cccnc3)s2)cc1
[1]; mean of runs
  EC50: > 12.5 µM (inactive)
[1]; [3]
  EC50: > 12.5 µM
[1]; [4]
  EC50: > 12.5 µM
NB7+Caspase-8; [3]
  EC50: > 12.5 µM
NB7+Caspase-8; [4]
  EC50: 5.66 µM
[2]
  EC50: inactive

## Cc1ccc(NC(=O)c2ccccc2O)cc1
[1]; mean of runs
  EC50: inactive
[1]; [3]
  EC50: 11.1 µM
[1]; [4]
  EC50: 7.77 µM
NB7+Caspase-8; [3]
  EC50: > 12.5 µM
NB7+Caspase-8; [4]
  EC50: 10.5 µM
[2]
  EC50: inactive
